Measurements published in PMC12316928, “Synthesis and evaluation of novel thiohydantoin derivatives for antidiabetic activity using in silico in vitro and in vivo methods” (Scientific Reports, 2025).
Values after ≈ are worked out from the molar mass of the structure shown. Values joined by “and” are separate entries in the source; they are usually repeats but may differ in a detail not shown here. Equal values may be shown once. “Also recorded” adds a separate entry of the source. Read-outs that look alike come from different tables or passages of the source.

Key:
α-amylase = biological target: T1, α-amylase (Sus scrofa, UniProt P00690); assay: α-Amylase inhibitory activity assay (DNSA method); assay type: biochemical
T1 sequence (P00690 16-511): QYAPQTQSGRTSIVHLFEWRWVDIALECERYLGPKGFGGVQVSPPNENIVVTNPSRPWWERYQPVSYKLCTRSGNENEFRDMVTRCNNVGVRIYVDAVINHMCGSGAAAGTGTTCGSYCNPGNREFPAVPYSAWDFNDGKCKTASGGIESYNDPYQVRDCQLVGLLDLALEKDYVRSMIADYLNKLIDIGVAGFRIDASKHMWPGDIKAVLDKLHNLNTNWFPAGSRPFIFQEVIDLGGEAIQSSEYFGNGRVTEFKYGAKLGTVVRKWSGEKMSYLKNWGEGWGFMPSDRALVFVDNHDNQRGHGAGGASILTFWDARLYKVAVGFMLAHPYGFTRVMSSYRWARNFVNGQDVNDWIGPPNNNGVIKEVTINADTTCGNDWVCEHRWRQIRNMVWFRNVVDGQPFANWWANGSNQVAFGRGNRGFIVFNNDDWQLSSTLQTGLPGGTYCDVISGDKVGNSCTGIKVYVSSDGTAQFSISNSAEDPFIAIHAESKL
Procedure: The inhibitory potential of the synthesized derivatives against α-amylase was determined using the DNSA (3,5-dinitrosalicylic acid) colorimetric method, as reported by Bernfeld[37]. The α-amylase enzyme (from Sigma-Aldrich) was prepared in 20 mM sodium phosphate buffer (pH 6.9). […] After incubation, 100 µL of DNSA reagent was added, and the mixture was heated at 85 °C for 15 min. The reaction was stopped by cooling, and the absorbance was measured at 595 nm. A blank control was prepared to adjust background absorbance, and the percentage inhibition was calculated.

[1] = DPPH free radical scavenging assay
Procedure: The antioxidant activity of synthesized compounds was evaluated using the DPPH free-radical scavenging assay, following the methodology outlined by[34]. This assay is based on the principle that the stable free radical DPPH undergoes a color change from deep purple to yellow upon reduction, indicating hydrogen donation from antioxidant compounds. Different concentrations (3.12, 6.25, 12.5, 25, 50, 100, and 200 µg/mL) of test compounds were prepared in methanol. A 200 µL aliquot of each concentration was mixed with 50 µL of freshly prepared DPPH solution (0.659 mM). The reaction mixtures were incubated at room temperature for 20 min in the dark. Absorbance was recorded at 510 nm using an ELISA microplate reader. Trolox was employed as the reference antioxidant, and the percentage of inhibition was calculated using the following equation:
% Inhibition = [(A0 − A1)/A0] × 100.
Where A0 is the absorbance of the control, and A1 is the absorbance of the sample[34].

[2] = tested on: STZ-induced diabetic rats; assay: Effect on FBG, body weight and HbA1C over 6 weeks; assay type: in vivo, Sprague Dawley rats; set-up: % Reduction in FBG: concentration or dose not given beside the values
Procedure: (§1) Diabetes will be induced in rats (n = 6 per group) by a single intraperitoneal injection of 60-100 mg/kg body weight (BW) streptozotocin dissolved in normal saline. After 5 days of streptozotocin injection, the tail vein blood will be collected to determine the fasting blood glucose (FBG) level. Only rats with FBG over 200 mg/dl will be considered diabetic and used for further experimentation.
Diabetic Rats (n = 6 per group) will be randomly assigned to groups of six animals each in order to examine the impact of synthetic derivatives on FBG level, BW, and HbA1C. The course of treatment will last for six weeks. At the beginning of the experiment and at weekly intervals during the first 42 days of therapy, the FBG level and BW will be measured. Rats will be denied food for 12 h while fasting, but they will have unrestricted access to water. Commercial glucose oxidase kits will be used to measure the blood glucose level. Blood 7 will be collected through cardiac puncture at the end of study period and levels of HbA1C will be determined. Metformin will be used as standard for comparison purpose.

[3] = tested on: STZ-induced diabetic rats; assay: Fasting blood glucose and oral glucose tolerance test (OGTT); assay type: in vivo, Sprague Dawley rats; details: for OGTT (after 120 min): 120 min after glucose 2.0 g/kg; for Fasting blood glucose: Table 7, mean ± SD, 5 rats per group; for FBG and OGTT reduction in words: compared to diabetic control
Procedure: […] After 5 days of streptozotocin injection, the tail vein blood will be collected to determine the fasting blood glucose (FBG) level. Only rats with FBG over 200 mg/dl will be considered diabetic and used for further experimentation.
This assay will be performed in animals after fasting for an overnight (12 h). Then, rats will receive a bolus of glucose (2.0 g/kg body weight) followed by test molecule or control and plasma glucose will be measured from blood collected from tail vein at 0, 30, 60, 90 and 120 min after glucose administration. Plasma glucose levels will be analyzed using commercially available glucometer kits[40].

[4] = tested on: STZ-induced diabetic rats; assay: Physiological parameters (lipid profile); assay type: in vivo, Sprague Dawley rats; details: Fig. 1
Procedure: as §1
Animals will be sacrificed after […] of treatment and parameters including LDL, triglycerides, HDL cholesterol, and glucose will be determined by using KONELAB SYSTEM (Thermo Fisher Scientific, Finland) according to manufacturer’s guidelines.

3T3 fibroblast cell line = assay: Cytotoxicity MTT assay; assay type: cell-based; details: for IC₅₀ cytotoxicity MTT: 48 h, Mean ± SD, n = 3
Procedure: (§2) The cytotoxic effects of the selected compounds were evaluated against the 3T3 fibroblast cell line (Sigma-Aldrich, product no. 90020107) using the MTT (3-(4,5-dimethylthiazol-2-yl)−2,5-diphenyl tetrazolium bromide) assay, following the protocol established by Mosmann[38]. A cell suspension containing 1 × 10⁵ cells per well was seeded into a 96-well plate and incubated at 37 °C with 5% CO₂ for 48 h. The cells were then treated with different concentrations of test compounds (4, 16, 63, 250, and 1000 µg/mL, dissolved in DMSO) and incubated for an additional 48 h. Following incubation, 180 µL of MTT solution (5 mg/mL in PBS) was added to each well and incubated for 4 h. The formazan crystals formed were solubilized, and absorbance was measured at 570 nm using an ELISA reader. Celecoxib was used as a positive control.

Cytotoxicity MTT assay = assay type: cell-based; details: mouse, 3T3 fibroblast cells, 48 h, Mean ± SD, n = 3, read-out: IC₅₀ cytotoxicity MTT
Procedure: as §2

[5] = biological target: T2, α-glucosidase (EC3.2.1.20) (Saccharomyces cerevisiae, UniProt P53341); assay: α-Glucosidase inhibitory activity assay; assay type: biochemical; details: for inhibition at 200 µg/mL: read-out: %Inhibition (200 µg/ml) alpha glucosidase
T2 construct: purchased Sigma-Aldrich
T2 sequence (P53341 whole entry): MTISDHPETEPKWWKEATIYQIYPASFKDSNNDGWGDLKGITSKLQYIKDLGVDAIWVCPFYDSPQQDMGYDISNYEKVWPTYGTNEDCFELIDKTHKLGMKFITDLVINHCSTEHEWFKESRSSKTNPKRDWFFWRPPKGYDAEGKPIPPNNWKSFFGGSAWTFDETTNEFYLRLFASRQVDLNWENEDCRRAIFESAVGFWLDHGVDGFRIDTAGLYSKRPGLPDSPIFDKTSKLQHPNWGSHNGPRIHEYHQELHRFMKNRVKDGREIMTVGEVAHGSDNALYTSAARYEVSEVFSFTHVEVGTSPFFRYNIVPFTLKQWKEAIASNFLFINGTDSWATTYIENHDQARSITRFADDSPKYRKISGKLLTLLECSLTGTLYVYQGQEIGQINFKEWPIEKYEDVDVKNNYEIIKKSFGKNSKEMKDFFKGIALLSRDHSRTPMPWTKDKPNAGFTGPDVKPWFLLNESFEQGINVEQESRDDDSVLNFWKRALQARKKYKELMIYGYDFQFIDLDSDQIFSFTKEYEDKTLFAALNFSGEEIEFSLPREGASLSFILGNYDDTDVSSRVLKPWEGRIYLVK
Procedure: The ability of the synthesized compounds to inhibit α-glucosidase was determined as per the method described by[35]. […] After incubation at 37 °C for 10 min, the reaction was initiated by adding 25 µL of substrate (4 mM) and further incubating at 37 °C for 20 min. The absorbance was measured at 405 nm.

Row | SMILES | DPPH free radical scavenging % inhibition ([1]; 3.12 µg/mL) | DPPH free radical scavenging % inhibition ([1]; 6.25 µg/mL) | DPPH free radical scavenging % inhibition ([1]; 12.5 µg/mL) | DPPH free radical scavenging % inhibition ([1]; 25 µg/mL) | DPPH free radical scavenging % inhibition ([1]; 50 µg/mL) | DPPH free radical scavenging % inhibition ([1]; 100 µg/mL) | DPPH free radical scavenging % inhibition ([1]; 200 µg/mL) | alpha-amylase inhibition in words (α-amylase) | OGTT (after 120 min) [3] | Fasting blood glucose [3] | FBG and OGTT reduction in words [3] | Cytotoxicity category (3T3 fibroblast cell line) | IC₅₀ cytotoxicity MTT (3T3 fibroblast cell line) | IC50 at 48 h (Cytotoxicity MTT assay) | inhibition at 200 µg/mL [5] | alpha-glucosidase inhibition in words [5] | further results
1 | C[C@H]1O[C@H](O[C@H]2[C@H](O)[C@@H](O)[C@@H](O[C@H]3[C@H](O)[C@@H](O)C(O)O[C@@H]3CO)O[C@@H]2CO)[C@H](O)[C@@H](O)[C@@H]1N[C@H]1C=C(CO)[C@@H](O)[C@H](O)[C@H]1O (some centres unmarked) [Acarbose, reference compound] | – | – | – | – | – | – | – | – | – | – | – | – | – | – | – | – | %Inhibition alpha amylase (α-amylase; positive control Acarbose 50 µg/ml, Mean ± SD): 92.23 ± 1.08%
2 | CC(=O)Nc1ccc(S(=O)(=O)N2CC(=O)NC2=S)cc1 [FP1, N-[4-(4-oxo-2-sulfanylideneimidazolidine-1-sulfonyl)phenyl]acetamide] | 12.5 ± 1.1% | 24.7 ± 1.8% | 38.1 ± 2.3% | 51.5 ± 2.7% | 58.9 ± 2.9% | 63.4 ± 3.0% | 67.3 ± 3.2% | lack of inhibition | 310.3 ± 10.7 mg/dL | 245.9 ± 8.2 mg/dL | mild but significant activity | negligible cytotoxicity; also recorded: Non-toxic | > 1000 ± 0.0 µg/mL | > 900 µg/mL | 45.7 ± 1.12% | – | IC₅₀ (concentration required to inhibit 50% of DPPH free radicals) [1]: 76.5 ± 2.9 µg/mL; BW (Day 0) ([2]; Day 0, baseline): 217.5 ± 8.3 g; FBG (Day 0) ([2]; Day 0, baseline): 282.8 ± 10.3 mg/dL; % Change in BW ([2]; Day 0 to Day 42): −8.7%; % Reduction in FBG ([2]; Day 0 to Day 42): 17.6%; BW (Day 42) ([2]; Day 42 of treatment): 198.6 ± 7.8 g; FBG (Day 42) ([2]; Day 42 of treatment): 232.9 ± 9.7 mg/dL; HbA1C ([2]; end of 6-week treatment): 8.1% and 8.1 ± 0.4%; lipid profile effect in words [4]: marginal effects
3 | O=C1CN(S(=O)(=O)c2cc(C(=O)O)ccc2Cl)C(=S)N1 [FP7, 4-chloro-3-(4-oxo-2-sulfanylideneimidazolidine-1-sulfonyl)benzoic acid] | 7.6 ± 0.7% | 14.8 ± 1.0% | 21.5 ± 1.4% | 30.2 ± 1.8% | 39.5 ± 2.0% | 43.7 ± 2.3% | 47.2 ± 2.5% | lack of inhibition | 325.0 ± 11.6 mg/dL | 258.2 ± 9.4 mg/dL | minor reductions | negligible cytotoxicity; also recorded: Non-toxic | > 1000 ± 0.0 µg/mL | > 900 µg/mL | 27.3 ± 0.91% | inactive | –
4 | Cc1ccc(S(=O)(=O)N2CC(=O)NC2=S)cc1 [FP3, 1-(4-methylbenzene-1-sulfonyl)−2-sulfanylideneimidazolidin-4-one] | 9.2 ± 0.9% | 18.5 ± 1.4% | 27.9 ± 1.8% | 38.3 ± 2.1% | 45.7 ± 2.3% | 51.2 ± 2.5% | 55.8 ± 2.7% | lack of inhibition | 320.8 ± 11.3 mg/dL | 255.7 ± 9.0 mg/dL | minor reductions | Low cytotoxicity | – | 722 ± 15.3 µg/mL (≈ 2670 µM) | – | inactive | inhibition at 200 µg/mL ([5]; sample concentration 200 µg/ml, Mean ± SD): 29.4 ± 1.08%
